Data taken from patent EP0408760B1, “NEW HYDROXYLAMINE DERIVATIVE” (FUJISAWA PHARMACEUTICAL CO., LTD., priority 1988, dated 1990).

Tested on: D-Galactosamine-induced hepatitis in rats
Test: Effect of compound on D-Galactosamine-induced hepatitis in rats (serum GOT and GPT)
Type: in vivo
Details: orally 3 hour before and after D-Galactosamine, blood 24 hours later, male Wistar rats
Protocol: Method : Effect of compound on D-Galactosamine-induced hepatitis in rats
Acute hepatitis was induced in male Wistar rats at 6 weeks of age by the intraperitoneal injection of 80 mg/ml D-Galactosamine in saline at the volume of 5 ml/kg. Blood samples were taken in rats under ether anaesthesia 24 hours later.
After centrifugation for the separation of sera, the levels of GOT and GPT were determined spectrophotometrically according to Biochemical Analyzer TBA-20R (Toshiba).
Compound was dissolved in polyethylene glycol 400, and administered orally 3 hour before and after the injection of D-Galactosamine.
The levels of serum GOT and GPT in group of animals were measured as described above, and the mean value of each group calculated, including normal rats without D-Galactosamine injection.
The effect of compound was expressed as the percentage Inhibition at serum GOT and GPT, taking activity of control serum as 0% Inhibtion and that of normal serum as 100% Inhibition.

SMILES: CCNC(=O)N(O)CC1=Cc2cccc(Oc3ccccc3)c2CC1 [Test Compound (f), N-[(3,4-Dihydro-5-phenoxy-2-naphthyl)methyl]-N-hydroxy-N'-ethylurea]
- Inhibition (%) serum GOT (dose 1 mg/kg): 38%
- Inhibition (%) serum GPT (dose 1 mg/kg): 42%
- Inhibition (%) serum GOT (dose 10 mg/kg): 40%
- Inhibition (%) serum GPT (dose 10 mg/kg): 37%
- Inhibition (%) serum GOT (dose 32 mg/kg): 67%
- Inhibition (%) serum GPT (dose 32 mg/kg): 64%
